The text below walks through data of patent US12485182B2, “Proteoglycan mimetics for enhanced wound healing, angiogenesis, and vascular repair” (The Regents of the University of California, priority 2018, dated 2025).

Entries after “also recorded” stand apart in the source; their conditions may differ. Positions of bridges follow the written chain, without caps; N, C: chain ends. Non-standard residues stand in square brackets, D forms with d. No end group written: not given here.

The subject of assay [1] is denuded arteries. Kind of assay: Ossabaw pig angioplasty model, platelet deposition (acute). The following applies: vs saline. Format: in vivo. How it is done: (§1) An In vivo Ossabaw pig angioplasty model was used to assess platelet deposition (acute) and neointimal hyperplasia (1-month recovery) with DS-SILY treatment. Porous angioplasty balloons were employed for delivery of soluble DS-SILY to the target arteries in the peripheral vasculature of pigs. Renal, femoral, and iliac arteries were denuded by balloon expansion, followed by delivery through the porous balloon. Arteries were treated with and without the use of a bare metal stent and the healing response was assessed for neointimal hyperplasia.
Arteries for assessing the acute response of balloon injury were harvested within hours of angioplasty. The arteries were rinsed with saline and fixed in 10% formalin overnight, and prepared for SEM visualization. […] High magnification images in FIG. 31 show numerous projections and spreading of platelets on sham control arteries, indicative of platelet activation.

Assay [2] has as its system platelets. The experiment in a line: Platelet binding and activation on a collagen surface in vitro. Type of assay: cell-based.
Assay [3] relates to denuded arteries. The experiment in a line: Ossabaw pig angioplasty model, neointimal hyperplasia (1-month recovery). Format: in vivo. As to conditions: with and without stents, vs sham. The method, then:
as §1, with “hyperplasia. Neointimal hyperplasia was assessed by histology after 1-month recovery by measuring the distance between the internal elastic lamina and the lumen, or between a stent post and the lumen (FIG. 32).” for “hyperplasia.”

Another assay has as its system SMCs. Kind of assay: DS-SILY effects on SMCs. Format: cell-based.
A further assay relates to collagen. Kind of assay: DS-SILY binding to collagen.
The subject of assay [4] is platelets (platelet-rich plasma). The experiment in a line: Platelet binding under flow on collagen-coated microchannels. Type of assay: cell-based. As to conditions: PRP, shear rate 750 s^−1, 4 minutes. How it is done: Flow kits from Ibidi (Martinsried, Germany) were used to measure […] recruitment under flow conditions. Microchannels were coated with equine fibrillar type I collagen (Chronolog, Havertown, PA) diluted in 0.85% sodium chloride and incubated for one hour at room temperature. Unbound collagen was removed by rinsing three time with 1×PBS. The treatment molecule (DS-SILY, LXW7-DS-SILY, or LXW7-(SILY)2) was incubated in the channel for 30 minutes at room temperature, and unbound peptidoglycan was rinsed with 1× PBS.
Next, 15 mL of blood was drawn into sodium citrate vacutainers by venipuncture and centrifuged for 20 minutes at 200 Gs and 37° C. and the top layer of platelet-rich plasma (PRP) was collected. A syringe pump was used to flow PRP through microchannels at 4.2 mL/hr for a shear rate of 750 s^−1. After 4 minutes, the channels were rinsed with 100 μL, PBS to remove unbound cells. Adherent cells were stained with 10 μM CellTracker Green (ThermoFisher Scientific) in media for 30 minutes at 37° C. Channels were rinsed with 1× PBS and total fluorescence and cell number in the channels were quantified using ImageJ (NIH, Bethesda, MD).

A further assay relates to EC. The experiment in a line: EC migration on collagen surfaces. Format: cell-based.
Assay [5] deals with chick chorioallantoic membrane. Kind of assay: Ex ovo CAM assay, treatments eluting from collagen gels. Type of assay: in vivo. The following applies: after 24 hours. The method, then: Fertilized Hyline eggs obtained from the Avian Facility at UC Davis were incubated at 37° C. for 72 hours with 6 rotations per day at 80% humidity in a Grumbach egg incubator. On day 3, eggs were cracked open into disinfected weighboats (VWR) and covered with lids from square petri dishes (Fisher), and the embryos developed over a week in the incubator. On day 10, treatments encapsulated in collagen I gels were gently placed on the developing CAM. For experiments involving treatments freely eluting from the collagen gels, 100 μL of gel was polymerized in a 10-mm diameter rubber mold against a sterilized glass slide, and 1 treatment gel and 1 control gel was placed per CAM. The number of vessels in a 2-mm radius immediately surrounding the gel was manually counted in imageJ immediately after placement and 24 hours later to determine changes surrounding vessels. The change in vessels over 24 hours for treatment gels were normalized to the respective change in the control gel on the same developing embryo.

A further assay has as its system ischemic wounds. As to conditions: exogenous VEGF; cited from earlier work.
Another assay relates to HMVEC monolayer. The experiment in a line: Endothelial monolayer permeability (transwell, RITC-dextran). Type of assay: cell-based, human. The following applies: by 72 hours. The method, then:
The following day, an additional 50,000 cells were seeded to each insert and allowed to grow for another 24 hours. Media was then removed and replaced with 0.5 mL media to the bottom well and 0.1 mL of treatment media to the insert for 10 minutes. Treatment was removed and 0.3 mL of 1 mg/mL RITC-dextran in media was then added to each transwell insert and allowed to permeate for 30 minutes. Sample permeate was then assayed on a SpectraMax M5 plate reader for fluorescence (excitation: 570 nm; emission: 590 nm). RITC-dextran solutions and sample permeates were then aspirated and replaced with another 0.1 mL of treatment media in the transwell insert and 0.5 mL media in the bottom chamber. This procedure was repeated daily over 4 days. Treatments were also compared to inserts with cells removed by rubbing away with a pipette tip to determine the barrier efficacy of the monolayer and the degree of increased permeability.

The next assay has as its system ERK1/2. Kind of assay: Western-blot, phosphorylation of ERK1/2. Format: cell-based. As to conditions: surface-grafted LXW7. The text has this:
(§2) FIG. 34. Effects of LXW7 on EC biological functions. (A) Proliferation of ECs on LXW7-treated surfaces and D-biotin treated surface (control) assessed by MTS assay. Data were expressed as mean±standard deviation: **p<0.01, ***p<0.001 (n=4). (B) Western-blot analysis of the effect of LXW7 on phosphorylation of VEGFR2 (Tyr1175) and phosphorylation of ERK1/2 (left panels) and quantified by densitometry (right panels). Data were expressed as mean±standard deviation: *p<0.05, **p<0.01 (n=4).
(§3) To test the ability of LXW7 to promote endothelialization, we evaluated polymer-based small diameter vascular grafts (ID 1 mm) functionalized with LXW7 via Click chemistry in a rat carotid artery bypass model (FIG. 35). […] After 6 weeks post implantation, 5 out of 6 LXW7-modified grafts were patent versus only 1 out of 6 control grafts was patent (FIG. 35). […] This confirms that LXW7 coating on the luminal surface of synthetic vascular grafts can generate a “living” endothelium.

Assay [6] deals with platelets. The experiment in a line: LXW7 binding to platelets. Format: cell-based. How it is done: (§4) Using primary artery-derived ECs and blood-derived EPCs as living probes to screen One-Bead-One-Compound (OBOC) combinatorial peptide libraries, several high-affinity binding ligands against the αvβ3 integrin on the surface of EPCs/ECs were identified. […] The LXW7 peptide, when grafted to surfaces, supports adhesion and spreading of EPCs and human coronary ECs, but not platelets or monocytes. Culture plates, 24-well, were coated with 500 μL of 20 μg/mL Avidin for 1 hour at 37° C. followed by washing with PBS and coating with either 500 μL molar equivalents of D-biotin, LXW7-biotin, or GRGD (SEQ ID NO: 2)-biotin. After washing with PBS and blocking with 1% BSA wells were ready for cell attachment with 5×10^4 HCAECs or THP-1 monocytes suspended in the respective maintenance medium, or freshly isolated platelets at a density of 5×10^7 platelets/cm^2 incubated for 16 h at 37° C., 5% CO2. The cells were washed with PBS, and fixed in 10% formalin for 20 min. For evaluation of HCAEC, the cells were blocked with 1% BSA and incubated overnight with mouse anti-CD31 antibody (1:100; Abcam) in 1% BSA at 4° C., followed by probing with goat anti-mouse Alexa Fluor 594 conjugate in 1% BSA. Nuclei were stained with DAPI. Images were captured using an Olympus IX81 microscope. […] Quantification of images was performed using the Image J software (NIH).

For assay [7], the system named is platelets. Kind of assay: Attachment of platelets to peptide-treated surfaces. As to conditions: biotin-peptide on Avidin-coated wells. Format: cell-based. An excerpt:
(§5) FIG. 33. Attachment of cells and platelets to LXW7 and GRGD (SEQ ID NO: 2) treated surfaces. (A) Images of attached HCAECs (left panels), THP-1 monocytes (middle panels) and platelets (right panels) on surfaces treated by D-Biotin (a-c) (control), LXW7 (d-f) or GRGD (SEQ ID NO: 2) (g-i). Scale bars in a, b, d, e, g and h are 50 μm. Scale bars in c, f and i are 20 μm. (B) The number of cells or platelets attached on different treated surfaces were quantified and statistical analyses were performed. Data were expressed as mean±standard deviation: **p<0.01 (n=4).
(§6) Using primary artery-derived ECs and blood-derived EPCs as living probes to screen One-Bead-One-Compound (OBOC) combinatorial peptide libraries, several high-affinity binding ligands against the αvβ3 integrin on the surface of EPCs/ECs were identified. […] The LXW7 peptide, when grafted to surfaces, supports adhesion and spreading of EPCs and human coronary ECs, but not platelets or monocytes. […] After washing with PBS and blocking with 1% BSA wells were ready for cell attachment with 5×10^4 HCAECs or THP-1 monocytes suspended in the respective maintenance medium, or freshly isolated platelets at a density of 5×10^7 platelets/cm^2 incubated for 16 h at 37° C., 5% CO2. […] Quantification of images was performed using the Image J software (NIH).

The test system of assay [8] is THP-1 monocytes. Kind of assay: LXW7 binding to THP-1 monocytes. Type of assay: cell-based. The method, then: as §4
Another assay concerns VEGFR2. Kind of assay: Western-blot, phosphorylation of VEGFR2 (Tyr1175). Format: cell-based. The following applies: surface-grafted LXW7.
Source text: as §2, §3

The test system of assay [9] is THP-1 monocytes. Kind of assay: Attachment of THP-1 monocytes to peptide-treated surfaces. Type of assay: cell-based. The following applies: biotin-peptide on Avidin-coated wells.
Source text: as §5, §6

The test system of another assay is HCAECs. Kind of assay: Attachment of HCAECs to peptide-treated surfaces. Type of assay: cell-based, human. As to conditions: biotin-peptide on Avidin-coated wells.
Source text: as §5, §6

In a further assay the test system is primary EPCs/ECs. Kind of assay: LXW7 binding to primary EPCs/ECs. Type of assay: cell-based. How it is done:
as §4

In another assay the test system is ECs. Kind of assay: Proliferation of ECs on LXW7-treated surfaces (MTS assay). Format: cell-based. As to conditions: surface-grafted LXW7 vs D-biotin control.
Source text: as §2, §3

Regarding “DS-SILY: antithrombotic proteoglycan mimetic; dermatan sulfate with collagen-binding SILY peptides (RRANAALKAGELYKSILYGSG; not fully specified; also: conjugated to dermatan sulfate backbone, attachment not given here)”, the “platelet activation (morphology) on denuded artery” value with denuded arteries [1] (SEM) is reported as “remained largely rounded”. The “platelet binding on denuded artery” value in the assay on denuded arteries [1] (delivery through porous balloon after balloon angioplasty) is on record as “platelets are scarcely found on the denuded artery; also recorded: almost completely inhibited platelet binding”. The “inhibition of platelet binding and activation on a collagen surface” value in the assay with platelets [2] is reported as around 90%. Moreover, the neointimal hyperplasia result with denuded arteries [3] is “minimal intimal hyperplasia is observed”. In the assay on SMCs, the “SMC migration and proliferation” value is “suppresses SMC migration and proliferation”; the inflammatory cytokine production result was “suppresses inflammatory cytokine production”; the “protein production by SMCs” value was “suppresses, but does not eliminate protein production by SMCs”. The binding to collagen entry with collagen is given as “high affinity”. Besides, the “platelet binding under flow” value in assay [4] is given as “low platelet binding”. For the same substance, in the assay with EC, the “promotion of EC migration compared to control collagen surfaces” value is given as “up to 32%”.

For VEGF, the vasculogenic activity entry in [5] (2 μg/mL) is reported as “comparable vasculogenic activity”. Moreover, the “increase in granulation tissue formation” value in the assay on ischemic wounds was “up to 150%”. Further, the “monolayer permeability vs untreated controls” value in the assay on HMVEC monolayer is “significantly different from untreated controls”.

With “cyclic cGRGDdvc ([dC]GRGD[dD][dV][dC]; disulfide 1-8 (inferred)) [LXW7, cyclic octapeptide ligand against the αvβ3 integrin]”, the “phosphorylation of ERK ½” value in the assay on ERK1/2 is “stimulated”. In addition, the binding to platelets result in the assay on platelets [6] is recorded as “weakly”. Moreover, the “platelet binding to treated surface” value with platelets [7] is recorded as “not monocyte or platelet binding”. In addition, the “binding to THP-1 monocytes” value in the assay with THP-1 monocytes [8] was “does not bind”. For the same substance, in assay [5] (100 μM eluted from collagen gels), the surrounding vessel growth entry is “either decreased or caused no changes in surrounding vessel growth”. Further, the “phosphorylation of VEGF2 receptor” value with VEGFR2 is “stimulated”. Besides, in the assay on THP-1 monocytes [9], the “monocyte binding to treated surface” value is on record as “not monocyte or platelet binding”. For the same substance, the “HCAEC binding to treated surface” value in the assay on HCAECs is reported as “supported robust HCAEC binding”. Also, the “binding to primary EPCs/ECs” value in the assay with primary EPCs/ECs is given as “bind strongly”. Further, the cell proliferation entry with ECs was “stimulated cell proliferation”.
